Laboratory results: patent US20060052297A1, “Method of up-regulating tumor antigen expression using thymalfasin” (priority 2002, published 2006)

Legend:
[1] = Safety of thymalfasin in humans; format: in vivo, human
Method: (§1) TLP expression-enhancing amounts of thymalfasin peptide can be determined by routine dose-titration experiments. Up-regulation of TLP can be achieved in vivo by administration of between 2 μg/kg and 6 mg/kg body weight of thymalfasin, preferably between 20 μg/kg and 200 μg/kg.

[2] = Safety of thymalfasin in rats; format: in vivo, rat
Method: as §1

[3] = subcutaneously injected; Rost, et al., 1998; cited from earlier work

For “Ac-SDAAVDTSSEITTKDLKEKKEVVEEAEN-OH [thymalfasin]”, the “dose found to be safe” value [1] is listed as at most 16 mg/dose/day, the “dose found to be safe” value [2] is listed as at most 6 mg/kg/day and the plasma half-life [3] is listed as “about 2 hours”.
